Results reported in US7824718B2, “Extract of Dioscorea opposita thunb showing neuronal cell-protecting activity for treating memory loss” (Tong Yang Moolsan Co., Ltd., priority 2005, dated 2010).

Test system: primary cultures of rat cortical neurons
Assay: Cell protective activity against glutamate induced-neurotoxicity (MTT assay)
Type: cell-based, Sprague-Dawley rats
Protocol: The extracts of Dioscorea opposita were suspended in DMSO (Sigma Co., Ltd) and diluted to the extent that the final concentration reaches to <0.1%. Each suspension was filtered with 0.22 μm membrane filter (Millipore Co., Ltd.) to sterilize. After the concentrations of each fractions were adjusted to 100 μg/ml and 10 μg/ml, The test samples with various final concentration of various fractions were named as follows: 100 μg/ml of hexane layer (H100), 10 μg/ml of hexane layer (H10), 100 μg/ml of water layer (W100), 10 μg/ml of water layer (W10), 100 μg/ml of ethyl-acetate layer (E100), 10 μg/ml of ethylacetate layer (E10), 100 μg/ml of chloroform layer (C100), 10 μg/ml of chloroform layer (C10), 100 μg/ml of butanol layer (B100), 10 μg/ml of butanol layer (B10) respectively. The cultured cell was pretreated with each test sample 1 hour before the glutamate treatment and the protective activity of D. opposita against the death of cerebral cortex cells was assessed.
The tested fractions were dissolved in DMSO and diluted to the extent that the final concentration reaches to <0.1%. The matured cerebral cortex cells for 15 days were pretreated with the test fractions for 1 hour and then exposed to 100 μM glutamate. After further incubation for 24 hour, the neuronal survival was quantified using by MTT assay, which yields blue formazan products in living cells.

Q: For `C[C@]12N[C@H](Cc3ccccc31)c1ccccc12` [MK801], which “Protection activity (%)” value (MK801 positive control in Table 1, concentration not given) is on record?
A: The value was 79%.

Q: And the Relative protection (positive control at 10 μM, P<0.0001)?
A: The Relative protection was 80.6±1.6%.
